How the values were obtained:
DDR1 [1] = biological target: T1, DDR1 (Homo sapiens, UniProt Q08345); assay: DDR1 binding assay (LanthaScreen Europium Kinase Binding assay); design: purchased Carna Biosciences; details: binding assay, 5 nM DDR1, 20 nM Kinase Tracer 178; Ki from IC50 by Cheng-Prusoff; read-out: Ki DDR1
Outline: (§1)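 TR-FRET tracer-displacement format: 665/615 nm emission ratio (340 nm excitation) gave IC50 by 4-parameter fit, then Ki via Cheng-Prusoff. Each kinase at 5 nM with 2 nM Eu-anti-GST antibody and Tracer 178 (DDR1 20 nM, DDR2 10 nM), 1 h, room temperature, HEPES pH 7.5 buffer.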

DDR2 = biological target: T2, DDR2 (Homo sapiens, UniProt Q16832); assay: DDR2 binding assay (LanthaScreen Europium Kinase Binding assay); design: purchased Life Technologies; details: binding assay, 5 nM DDR2, 10 nM Kinase Tracer 178; Ki from IC50 by Cheng-Prusoff; read-out: Ki DDR2
T2 sequence (Q16832 22-855): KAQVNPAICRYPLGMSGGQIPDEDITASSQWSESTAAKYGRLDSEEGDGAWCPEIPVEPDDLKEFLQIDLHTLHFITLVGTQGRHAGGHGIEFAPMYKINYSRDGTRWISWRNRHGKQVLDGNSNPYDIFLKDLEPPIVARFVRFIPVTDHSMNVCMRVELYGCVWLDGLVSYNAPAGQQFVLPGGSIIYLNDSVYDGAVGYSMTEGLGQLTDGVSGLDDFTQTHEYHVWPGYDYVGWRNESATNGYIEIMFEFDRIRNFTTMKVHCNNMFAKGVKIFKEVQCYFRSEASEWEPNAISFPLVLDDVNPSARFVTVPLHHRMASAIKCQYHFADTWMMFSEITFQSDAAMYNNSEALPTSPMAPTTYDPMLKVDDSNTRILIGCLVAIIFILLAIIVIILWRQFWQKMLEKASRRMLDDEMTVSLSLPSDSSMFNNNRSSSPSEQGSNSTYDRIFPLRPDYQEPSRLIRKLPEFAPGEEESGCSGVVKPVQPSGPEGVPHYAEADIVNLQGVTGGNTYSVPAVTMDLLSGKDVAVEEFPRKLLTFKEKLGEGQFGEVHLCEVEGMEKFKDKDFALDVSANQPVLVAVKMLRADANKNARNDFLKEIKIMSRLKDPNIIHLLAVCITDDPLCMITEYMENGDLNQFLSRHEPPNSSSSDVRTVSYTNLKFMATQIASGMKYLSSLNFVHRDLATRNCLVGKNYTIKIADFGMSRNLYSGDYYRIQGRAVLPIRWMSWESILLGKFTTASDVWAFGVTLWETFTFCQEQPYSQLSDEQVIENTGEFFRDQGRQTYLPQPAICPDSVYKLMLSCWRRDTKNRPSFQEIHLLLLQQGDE
Outline: as §1

DDR1 [2] = biological target: T1, DDR1; assay: DDR1 cell based assay (PathHunter U2OS DDR1 assay); design: host or cells: U2OS-DDR1 (PathHunter); details: U2OS-DDR1 cells, bovine Type II Collagen 20 μg/ml
Outline: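 Receptor activation measured by enzyme-fragment complementation luminescence in engineered U2OS cells. Compound added 30 min before overnight challenge with 20 μg/ml bovine collagen II; data scaled between vehicle and collagen-stimulated controls, IC50 derived by four-parameter variable-slope fitting.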

T1 sequence (Q08345 19-913): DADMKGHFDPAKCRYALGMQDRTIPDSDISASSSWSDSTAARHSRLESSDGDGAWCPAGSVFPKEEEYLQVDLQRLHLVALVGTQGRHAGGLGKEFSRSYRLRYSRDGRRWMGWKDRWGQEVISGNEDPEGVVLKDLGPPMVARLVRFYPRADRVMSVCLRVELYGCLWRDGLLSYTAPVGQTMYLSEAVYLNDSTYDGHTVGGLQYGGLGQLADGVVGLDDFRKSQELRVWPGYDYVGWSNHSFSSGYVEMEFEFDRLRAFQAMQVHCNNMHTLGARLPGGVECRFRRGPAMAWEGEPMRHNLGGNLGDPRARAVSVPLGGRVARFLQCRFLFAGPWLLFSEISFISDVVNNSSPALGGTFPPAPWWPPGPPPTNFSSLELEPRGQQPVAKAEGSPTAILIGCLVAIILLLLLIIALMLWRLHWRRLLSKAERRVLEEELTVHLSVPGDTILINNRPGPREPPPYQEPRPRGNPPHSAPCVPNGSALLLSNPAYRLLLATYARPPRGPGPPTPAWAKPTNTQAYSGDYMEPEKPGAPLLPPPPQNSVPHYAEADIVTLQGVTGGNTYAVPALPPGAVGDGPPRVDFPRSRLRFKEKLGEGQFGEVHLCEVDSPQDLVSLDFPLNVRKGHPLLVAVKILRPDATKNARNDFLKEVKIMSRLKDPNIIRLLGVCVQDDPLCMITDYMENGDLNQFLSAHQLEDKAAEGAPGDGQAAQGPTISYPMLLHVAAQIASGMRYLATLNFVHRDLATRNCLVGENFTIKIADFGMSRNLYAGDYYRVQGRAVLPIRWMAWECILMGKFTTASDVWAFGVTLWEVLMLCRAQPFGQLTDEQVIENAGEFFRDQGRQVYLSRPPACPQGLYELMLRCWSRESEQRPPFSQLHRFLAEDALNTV

Row | SMILES | Ki (DDR1 [1]) [µM] | Ki (DDR2) [µM] | IC50 (DDR1 [2]) [µM]
1 | CCn1nc(C(C)(C)C)cc1NC(=O)c1csc2c1CCN(C(=O)c1cnc3ccccn13)C2 [Example 42, N-(3-(tert-butyl)-1-ethyl-1H-pyrazol-5-yl)-6-(imidazo[1,2-a]pyridine-3-carbonyl)-4,5,6,7-tetrahydrothieno[2,3-c]pyridine-3-carboxamide] | < 0.025 | < 0.025 | 0.05 to 0.08
2 | CN1CCN(c2cc(NC(=O)c3csc4c3CCN(C(=O)c3cnc5ccccn35)C4)cc(C(F)(F)F)c2)CC1 [Example 177, 6-(imidazo[1,2-a]pyridine-3-carbonyl)-N-(3-(4-methylpiperazin-1-yl)-5-(trifluoromethyl)phenyl)-4,5,6,7-tetrahydrothieno [2,3-c]pyridine-3-carboxamide] | < 0.025 | < 0.025 | 0.05 to 0.08
3 | O=C(Nc1ccc(OCC2COC2)c(C(F)(F)F)c1)c1csc2c1CCN(C(=O)c1cnc3ccccn13)C2 [Example 14, 6-(imidazo[1,2-a]pyridine-3-carbonyl)-N-(4-(oxetan-3-ylmethoxy)-3-(trifluoromethyl)phenyl)-4,5,6,7-tetrahydrothieno[2,3-c]pyridine-3-carboxamide] | < 0.025 | < 0.025 | < 0.025
4 | Cn1nc(C(C)(C)C)cc1NC(=O)c1csc2c1CCN(C(=O)c1cnc3ccc(Cl)cn13)C2 [Example 83, N-(3-(tert-butyl)-1-methyl-1H-pyrazol-5-yl)-6-(6-chloroimidazo[1,2-a]pyridine-3-carbonyl)-4,5,6,7-tetrahydrothieno[2,3-c]pyridine-3-carboxamide] | < 0.025 | < 0.025 | 0.025 to 0.05
5 | CC(C)(C)c1cc(NC(=O)c2csc3c2CCN(C(=O)c2cnc4ccccn24)C3)n(CC(F)(F)F)n1 [Example 40, N-(3-(tert-butyl)-1-(2,2,2-trifluoroethyl)-1H-pyrazol-5-yl)-6-(imidazo[1,2-a]pyridine-3-carbonyl)-4,5,6,7-tetrahydrothieno[2,3-c]pyridine-3-carboxamide] | < 0.025 | < 0.025 | 0.025 to 0.05
6 | COCCOc1ccn2c(C(=O)N3CCc4c(C(=O)Nc5cccc(C(F)(F)F)c5)csc4C3)cnc2c1 [Example 138, 6-(7-(2-methoxyethoxy)imidazo[1,2-a]pyridine-3-carbonyl)-N-(3-(trifluoromethyl)phenyl)-4,5,6,7-tetrahydrothieno[2,3-c]pyridine-3-carboxamide] | < 0.025 | < 0.025 | < 0.025
7 | CC(C)(C)c1cc(NC(=O)c2csc3c2CCN(C(=O)c2cnc4ccccn24)C3)ccn1 [Example 37, N-(2-(tert-butyl)pyridin-4-yl)-6-(imidazo[1,2-a]pyridine-3-carbonyl)-4,5,6,7-tetrahydrothieno[2,3-c]pyridine-3-carboxamide] | < 0.025 | < 0.025 | 0.025 to 0.05
8 | O=C(Nc1cc(CN2CC3CC2CO3)cc(C(F)(F)F)c1)c1csc2c1CCN(C(=O)c1cnc3ccccn13)C2 (stereo not drawn) [Example 50, N-(3-((2-oxa-5-azabicyclo[2.2.1]heptan-5-yl)methyl)-5-(trifluoromethyl)phenyl)-6-(imidazo[1,2-a]pyridine-3-carbonyl)-4,5,6,7-tetrahydrothieno[2,3-c]pyridine-3-carboxamide] | < 0.025 | < 0.025 | 0.025 to 0.05
9 | Cc1n[nH]c2ncc(CN3CCc4c(C(=O)Nc5cc(C(C)(C)C)no5)csc4C3)cc12 [Example 147, N-(3-(tert-butyl)isoxazol-5-yl)-6-((3-methyl-1H-pyrazolo[3,4-b]pyridin-5-yl)methyl)-4,5,6,7-tetrahydrothieno[2,3-c]pyridine-3-carboxamide] | < 0.025 | < 0.025 | < 0.025
10 | O=C(Nc1nccc(C(F)(F)F)n1)c1csc2c1CCN(C(=O)c1cnc3ccccn13)C2 [Example 30, 6-(imidazo[1,2-a]pyridine-3-carbonyl)-N-(4-(trifluoromethyl)pyrimidin-2-yl)-4,5,6,7-tetrahydrothieno[2,3-c]pyridine-3-carboxamide] | < 0.025 | < 0.025 | 0.05 to 0.08
11 | CC1c2scc(C(=O)Nc3cccc(C(F)(F)F)c3)c2CCN1Cc1cnc2[nH]ccc2c1 (single isomer, unassigned) [Example 107, 6-((1H-pyrrolo[2,3-b]pyridin-5-yl)methyl)-7-methyl-N-(3-(trifluoromethyl)phenyl)-4,5,6,7-tetrahydrothieno[2,3-c]pyridine-3-carboxamide] | < 0.025 | < 0.025 | < 0.025
12 | CN1CCC(Oc2ccc(NC(=O)c3csc4c3CCN(C(=O)c3cnc5ccccn35)C4)cc2C(F)(F)F)C1 (stereo not drawn) [Example 31, 6-(imidazo[1,2-a]pyridine-3-carbonyl)-N-(4-((1-methylpyrrolidin-3-yl)oxy)-3-(trifluoromethyl)phenyl)-4,5,6,7-tetrahydrothieno[2,3-c]pyridine-3-carboxamide] | < 0.025 | < 0.025 | 0.05 to 0.08
13 | Cc1n[nH]c2ncc(CN3CCc4c(C(=O)Nc5cc(C6CC6)nn5C)csc4C3)cc12 [Example 146, N-(3-cyclopropyl-1-methyl-1H-pyrazol-5-yl)-6-((3-methyl-1H-pyrazolo[3,4-b]pyridin-5-yl)methyl)-4,5,6,7-tetrahydrothieno[2,3-c]pyridine-3-carboxamide] | < 0.025 | < 0.025 | 0.025 to 0.05
14 | O=C(Nc1cncc(C(F)(F)F)c1)c1csc2c1CCN(C(=O)c1cnn3ccsc13)C2 [Example 141, 6-(pyrazolo[5,1-b]thiazole-7-carbonyl)-N-(5-(trifluoromethyl)pyridin-3-yl)-4,5,6,7-tetrahydrothieno[2,3-c]pyridine-3-carboxamide] | < 0.025 | < 0.025 | < 0.025
15 | COc1ccn2c(C(=O)N3CCc4c(C(=O)Nc5cncc(C(F)(F)F)c5)csc4C3)cnc2c1 [Example 142, 6-(7-methoxyimidazo[1,2-a]pyridine-3-carbonyl)-N-(5-(trifluoromethyl)pyridin-3-yl)-4,5,6,7-tetrahydrothieno[2,3-c]pyridine-3-carboxamide] | < 0.025 | < 0.025 | 0.05 to 0.08
16 | O=C(Nc1cccc(C(F)(F)F)c1)c1csc2c1CCN(C(=O)c1cnn3cccnc13)C2 [Example 94, 6-(pyrazolo[1,5-a]pyrimidine-3-carbonyl)-N-(3-(trifluoromethyl)phenyl)-4,5,6,7-tetrahydrothieno[2,3-c]pyridine-3-carboxamide] | < 0.025 | < 0.025 | 0.05 to 0.08
17 | Cc1n[nH]c2ncc(CN3CCc4c(C(=O)Nc5cc(OCCN6CCCC6)cc(C(F)(F)F)c5)csc4C3)cc12 [Example 163, 6-[(3-methyl-1H-pyrazolo[3,4-b]pyridin-5-yl)methyl]-N-[3-(2-pyrrolidin-1-ylethoxy)-5-(trifluoromethyl)phenyl]-5,7-dihydro-4H-thieno[2,3-c]pyridine-3-carboxamide] | < 0.025 | < 0.025 | < 0.025
18 | CN(C)C1CCN(Cc2cc(NC(=O)c3csc4c3CCN(C(=O)c3cnc5ccccn35)C4)cc(C(F)(F)F)c2)CC1 [Example 48, N-(3-((4-(dimethylamino)piperidin-1-yl)methyl)-5-(trifluoromethyl)phenyl)-6-(imidazo[1,2-a]pyridine-3-carbonyl)-4,5,6,7-tetrahydrothieno[2,3-c]pyridine-3-carboxamide] | < 0.025 | 0.025 to 0.05 | 0.05 to 0.08

From US20240391936A1, “TETRAHYDROTHIENO PYRIDINE DERIVATIVES AS DDRS INHIBITORS” (CHIESI FARMACEUTICI S.P.A., priority 2021, published 2024)
